Experiment [1] can be described thus: In vitro inhibition of pig liver squalene epoxidase in HepG2 cells.
Experiment [2] can be described thus: In vitro inhibition of dog liver squalene epoxidase in HepG2 cells.

What is called IC50 is the point on the concentration scale where inhibition reaches its midpoint. Read a low IC50 as higher potency. Consider `CCN(C/C=C/C#CC(C)(C)C)Cc1cccc(OCCN(C)S(=O)(=O)c2cccs2)c1` [Thiophene-2-sulfonic acid [2-(3-{[((E)-6,6-dimethyl-hept-2-en-4-ynyl)-ethyl-amino]-methyl}-phenoxy)-ethyl]-methyl-amide], for which the IC50 in experiment [1] was found to be 50 nM; in experiment [2], 80 nM.

(Values after BindingDB's records for doi:10.1016/s0960-894x(98)00213-3 (Centre De Recherche Pierre Fabre, 1999).)
